Assays:
[1] = system: GDM-1; assay: cells; type: functional, cell-based; conditions: Homo sapiens;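 further: cell viability readout used to measure growth inhibition of human GDM-1 cells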
Description: SANGER: Inhibition of human GDM-1 cell growth in a cell viability assay.

[2] = system: JIYOYE; assay: cells; type: functional, cell-based; conditions: Homo sapiens
Description: SANGER: Inhibition of human JiyoyeP-2003 cell growth in a cell viability assay.

[3] = system: LB647-SCLC; assay: cells; type: functional, cell-based; conditions: Homo sapiens;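 further: cell growth inhibition, read out by a viability assay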
Description: SANGER: Inhibition of human LB647-SCLC cell growth in a cell viability assay.

[4] = system: LC-1F; assay: cells; type: functional, cell-based; conditions: Homo sapiens;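 further: growth inhibition of human LC-1F cells, read out with a cell viability assay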
Description: SANGER: Inhibition of human LC-1F cell growth in a cell viability assay.

[5] = system: LC4-1; assay: cells; type: functional, cell-based; conditions: Homo sapiens;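 further: growth inhibition of LC4-1 cells, read out with a cell viability assay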
Description: SANGER: Inhibition of human LC4-1 cell growth in a cell viability assay.

[6] = system: MC-CAR; assay: cells; type: functional, cell-based; conditions: Homo sapiens;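 further: growth inhibition of the human MC-CAR cell line, read out by a cell viability assay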
Description: SANGER: Inhibition of human MC-CAR cell growth in a cell viability assay.

[7] = system: MHH-CALL-2; assay: cells; type: functional, cell-based; conditions: Homo sapiens;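 further: growth inhibition of the cell line, read out in a cell viability assay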
Description: SANGER: Inhibition of human MHH-CALL-2 cell growth in a cell viability assay.

[8] = system: MONO-MAC-6; assay: cells; type: functional, cell-based; conditions: Homo sapiens;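 further: cell viability assay measuring growth inhibition of human MONO-MAC-6 cells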
Description: SANGER: Inhibition of human MONO-MAC-6 cell growth in a cell viability assay.

[9] = system: NCI-H1963; assay: cells; type: functional, cell-based; conditions: Homo sapiens;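 further: cell growth inhibition of the human line, determined with a cell viability assay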
Description: SANGER: Inhibition of human NCI-H1963 cell growth in a cell viability assay.

[10] = system: Raji; assay: cells; type: functional, cell-based; conditions: Homo sapiens;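 further: cell viability assay measuring inhibition of Raji cell growth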
Description: SANGER: Inhibition of human Raji cell growth in a cell viability assay.

[11] = system: SK-MM-2; assay: cells; type: functional, cell-based; conditions: Homo sapiens;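 further: growth inhibition of human SK-MM-2 cells, read out with a cell viability assay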
Description: SANGER: Inhibition of human SK-MM-2 cell growth in a cell viability assay.

[12] = system: SUP-T1; assay: cells; type: functional, cell-based; conditions: Homo sapiens;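 further: growth inhibition of human SUP-T1 cells, read out as cell viability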
Description: SANGER: Inhibition of human SUP-T1 cell growth in a cell viability assay.

[13] = system: BL-70; assay: SANGER: Inhibition of human BL-70 cell growth in a cell viability assay.; type: functional, cell-based
[14] = system: TE-441-T; assay: cells; type: functional, cell-based; conditions: Homo sapiens
Description: SANGER: Inhibition of human TE-441-T cell growth in a cell viability assay.

[15] = system: U-698-M; assay: cells; type: functional, cell-based; conditions: Homo sapiens
Description: SANGER: Inhibition of human U-698-M cell growth in a cell viability assay.

[16] = system: CHP-126; assay: cells; type: functional, cell-based; conditions: Homo sapiens
Description: SANGER: Inhibition of human CHP-126 cell growth in a cell viability assay.

[17] = system: COR-L105; assay: cells; type: functional, cell-based; conditions: Homo sapiens
Description: SANGER: Inhibition of human COR-L105 cell growth in a cell viability assay.

[18] = system: DK-MG; assay: cells; type: functional, cell-based; conditions: Homo sapiens;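 further: growth inhibition of DK-MG cells, read out with a cell viability assay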
Description: SANGER: Inhibition of human DK-MG cell growth in a cell viability assay.

[19] = system: DMS-273; assay: cells; type: functional, cell-based; conditions: Homo sapiens
Description: SANGER: Inhibition of human DMS-273 cell growth in a cell viability assay.

[20] = system: DU-145; assay: cells; type: functional, cell-based; conditions: Homo sapiens
Description: SANGER: Inhibition of human DU-145 cell growth in a cell viability assay.

[21] = system: EFM-19; assay: cells; type: functional, cell-based; conditions: Homo sapiens;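 further: growth inhibition of human EFM-19 cells, measured in a cell viability assay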
Description: SANGER: Inhibition of human EFM-19 cell growth in a cell viability assay.

[22] = system: ESS-1; assay: cells; type: functional, cell-based; conditions: Homo sapiens;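 further: growth inhibition of human ESS-1 cells, read out by a cell viability assay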
Description: SANGER: Inhibition of human ESS-1 cell growth in a cell viability assay.

[23] = system: G-361; assay: cells; type: functional, cell-based; conditions: Homo sapiens
[24] = system: G-402; assay: cells; type: functional, cell-based; conditions: Homo sapiens
Description: SANGER: Inhibition of human G-402 cell growth in a cell viability assay.

[25] = system: H4; assay: cells; type: functional, cell-based; conditions: Homo sapiens
Description: SANGER: Inhibition of human H4 cell growth in a cell viability assay.

[26] = system: HCC38; assay: cells; type: functional, cell-based; conditions: Homo sapiens;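 further: cell viability assay on the human HCC38 cell line, with IC50 marking the concentration that inhibits cell growth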
Description: SANGER: Inhibition of human HCC38 cell growth in a cell viability assay.

[27] = system: HGC-27; assay: cells; type: functional, cell-based; conditions: Homo sapiens;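 further: growth inhibition of human HGC-27 cells, read out in a cell viability assay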
Description: SANGER: Inhibition of human HGC-27 cell growth in a cell viability assay.

[28] = system: HOS; assay: cells; type: functional, cell-based; conditions: Homo sapiens;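 further: growth inhibition of human HOS cells, read out with a cell viability assay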
Description: SANGER: Inhibition of human HOS cell growth in a cell viability assay.

[29] = system: HT-1080; assay: cells; type: functional, cell-based; conditions: Homo sapiens
Description: SANGER: Inhibition of human HT-1080 cell growth in a cell viability assay.

[30] = system: HT55; assay: cells; type: functional, cell-based; conditions: Homo sapiens;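 further: cell viability readout measuring growth inhibition of human HT55 cells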
Description: SANGER: Inhibition of human HT55 cell growth in a cell viability assay.

[31] = system: Hs-578T; assay: cells; type: functional, cell-based; conditions: Homo sapiens
Description: SANGER: Inhibition of human Hs-578-T cell growth in a cell viability assay.

[32] = system: IGROV-1; assay: cells; type: functional, cell-based; conditions: Homo sapiens;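 further: reduction of IGROV-1 cell growth, read out with a viability assay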
Description: SANGER: Inhibition of human IGROV-1 cell growth in a cell viability assay.

[33] = system: LK-2; assay: cells; type: functional, cell-based; conditions: Homo sapiens;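 further: growth inhibition of LK-2 cells, read out with a viability assay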
Description: SANGER: Inhibition of human LK-2 cell growth in a cell viability assay.

[34] = system: LU-99A; assay: cells; type: functional, cell-based; conditions: Homo sapiens;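 further: growth inhibition of LU-99A cells, read out with a cell viability assay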
Description: SANGER: Inhibition of human LU-99A cell growth in a cell viability assay.

[35] = system: MDA-MB-175-VII; assay: cells; type: functional, cell-based; conditions: Homo sapiens
[36] = system: MDA-MB-415; assay: cells; type: functional, cell-based; conditions: Homo sapiens
[37] = system: MKN-45; assay: cells; type: functional, cell-based; conditions: Homo sapiens;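 further: growth inhibition of human MKN-45 cells, measured with a cell viability assay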
Description: SANGER: Inhibition of human MKN45 cell growth in a cell viability assay.

[38] = system: NCI-H2087; assay: cells; type: functional, cell-based; conditions: Homo sapiens;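 further: growth inhibition determined with a cell viability readout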
Description: SANGER: Inhibition of human NCI-H2087 cell growth in a cell viability assay.

[39] = system: NCI-H441; assay: cells; type: functional, cell-based; conditions: Homo sapiens;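 further: growth inhibition of NCI-H441 cells, read out with a cell viability assay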
Description: SANGER: Inhibition of human NCI-H441 cell growth in a cell viability assay.

[40] = system: NCI-H596; assay: cells; type: functional, cell-based; conditions: Homo sapiens;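 further: growth inhibition of NCI-H596 cells, read out with a cell viability assay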
Description: SANGER: Inhibition of human NCI-H596 cell growth in a cell viability assay.

[41] = system: NCI-H661; assay: cells; type: functional, cell-based; conditions: Homo sapiens;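 further: cell viability assay read-out, IC50 being the concentration that inhibits growth of the cells by half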
Description: SANGER: Inhibition of human NCI-H661 cell growth in a cell viability assay.

[42] = system: NCI-H727; assay: cells; type: functional, cell-based; conditions: Homo sapiens;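 further: growth inhibition of human NCI-H727 cells, read out with a cell viability assay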
Description: SANGER: Inhibition of human NCI-H727 cell growth in a cell viability assay.

[43] = system: OE33; assay: cells; type: functional, cell-based; conditions: Homo sapiens;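 further: growth inhibition of human OE33 cells, measured by a cell viability assay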
Description: SANGER: Inhibition of human OE33 cell growth in a cell viability assay.

[44] = system: RERF-LC-MS; assay: cells; type: functional, cell-based; conditions: Homo sapiens;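 further: growth inhibition of human RERF-LC-MS cells, read out by a cell viability assay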
Description: SANGER: Inhibition of human RERF-LC-MS cell growth in a cell viability assay.

[45] = system: RT-112; assay: cells; type: functional, cell-based; conditions: Homo sapiens
Description: SANGER: Inhibition of human RT-112 cell growth in a cell viability assay.

[46] = system: S-117; assay: cells; type: functional, cell-based; conditions: Homo sapiens
Description: SANGER: Inhibition of human S-117 cell growth in a cell viability assay.

[47] = system: SCC-4; assay: cells; type: functional, cell-based; conditions: Homo sapiens;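 further: growth inhibition of human SCC-4 cells, read out as cell viability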
Description: SANGER: Inhibition of human SCC-4 cell growth in a cell viability assay.

[48] = system: SNU-423; assay: cells; type: functional, cell-based; conditions: Homo sapiens
Description: SANGER: Inhibition of human SNU-423 cell growth in a cell viability assay.

[49] = system: SW1088; assay: cells; type: functional, cell-based; conditions: Homo sapiens;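 further: growth inhibition of human SW1088 cells, read out by a cell viability assay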
Description: SANGER: Inhibition of human SW1088 cell growth in a cell viability assay.

[50] = system: SW837; assay: cells; type: functional, cell-based; conditions: Homo sapiens;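 further: growth inhibition of SW837 cells, determined with a cell viability assay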
Description: SANGER: Inhibition of human SW837 cell growth in a cell viability assay.

[51] = system: SAOS-2; assay: cells; type: functional, cell-based; conditions: Homo sapiens;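 further: growth inhibition of human Saos-2 cells determined by a cell viability assay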
Description: SANGER: Inhibition of human Saos-2 cell growth in a cell viability assay.

[52] = system: 5637; assay: cells; type: functional, cell-based; conditions: Homo sapiens
Description: SANGER: Inhibition of human 5637 cell growth in a cell viability assay.

[53] = system: 8305C; assay: cells; type: functional, cell-based; conditions: Homo sapiens
Description: SANGER: Inhibition of human 8305C cell growth in a cell viability assay.

[54] = system: A 172; assay: cells; type: functional, cell-based; conditions: Homo sapiens;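 further: growth inhibition of A172 cells, measured with a cell viability readout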
Description: SANGER: Inhibition of human A172 cell growth in a cell viability assay.

[55] = system: A2780; assay: cells; type: functional, cell-based; conditions: Homo sapiens;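 further: growth inhibition of A2780 cells, read out with a cell viability assay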
Description: SANGER: Inhibition of human A2780 cell growth in a cell viability assay.

[56] = system: A-427; assay: cells; type: functional, cell-based; conditions: Homo sapiens;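 further: growth inhibition of human A-427 cells, read out by a cell viability assay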
Description: SANGER: Inhibition of human A427 cell growth in a cell viability assay.

[57] = system: A-431; assay: cells; type: functional, cell-based; conditions: Homo sapiens;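 further: growth inhibition of A-431 cells, determined with a cell viability read-out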
Description: SANGER: Inhibition of human A431 cell growth in a cell viability assay.

[58] = system: C3A; assay: cells; type: functional, cell-based; conditions: Homo sapiens;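 further: growth inhibition of C3A human cells, quantified with a cell viability readout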
Description: SANGER: Inhibition of human C3A cell growth in a cell viability assay.

[59] = system: CAL-120; assay: cells; type: functional, cell-based; conditions: Homo sapiens;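 further: cell growth inhibition, read out as cell viability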
Description: SANGER: Inhibition of human CAL-120 cell growth in a cell viability assay.

[60] = system: CAL-12T; assay: cells; type: functional, cell-based, Homo sapiens; conditions: Homo sapiens, CAL-12T;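 further: growth inhibition of human CAL-12T cells, read out with a cell viability assay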
Description: SANGER: Inhibition of human CAL-12T cell growth in a cell viability assay.

[61] = system: CAL-33; assay: cells; type: functional, cell-based; conditions: Homo sapiens;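 further: growth inhibition of CAL-33 cells, read out with a cell viability assay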
Description: SANGER: Inhibition of human CAL-33 cell growth in a cell viability assay.

[62] = system: UO-31; assay: cells; type: functional, cell-based; conditions: Homo sapiens
Description: SANGER: Inhibition of human U031 cell growth in a cell viability assay.

[63] = system: U-251; assay: cells; type: functional, cell-based; conditions: Homo sapiens;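 further: growth inhibition of human U-251 cells, read out through a cell viability assay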
Description: SANGER: Inhibition of human U251 cell growth in a cell viability assay.

[64] = system: YAPC; assay: cells; type: functional, cell-based; conditions: Homo sapiens;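 further: growth inhibition of YAPC cells, measured with a cell viability assay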
Description: SANGER: Inhibition of human YAPC cell growth in a cell viability assay.

[65] = system: CAPAN-1; assay: cells; type: functional, cell-based; conditions: Homo sapiens;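 further: growth suppression of CAPAN-1 cells, read out by a cell viability assay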
Description: SANGER: Inhibition of human CAPAN-1 cell growth in a cell viability assay.

## CCNc1cc(N[C@H]2CC[C@@H](O)CC2)nc(Nc2ccc3c(ccn3Cc3ccccc3)c2)n1
[1]
  IC50: > 5.12 µM
[2]
  IC50: > 5.12 µM
[3]
  IC50: > 5.12 µM
[4]
  IC50: > 5.12 µM
[5]
  IC50: > 5.12 µM
[6]
  IC50: > 5.12 µM
[7]
  IC50: > 5.12 µM
[8]
  IC50: > 5.12 µM
[9]
  IC50: > 5.12 µM
[10]
  IC50: > 5.12 µM
[11]
  IC50: > 5.12 µM
[12]
  IC50: > 5.12 µM
[13]
  IC50: > 5.12 µM
[14]
  IC50: > 5.12 µM
[15]
  IC50: > 5.12 µM
[16]
  IC50: > 5.12 µM

## N#C/C(=C1/Nc2ccccc2S1)c1ccnc(NCCc2cccnc2)n1
[17]
  IC50: 1.77 µM
[18]
  IC50: > 8 µM
[19]
  IC50: 1.49 µM
[20]
  IC50: > 8 µM
[21]
  IC50: 5.39 µM
[22]
  IC50: 6.49 µM
[23]
  IC50: > 8 µM
[24]
  IC50: > 8 µM
[1]
  IC50: > 8 µM
[25]
  IC50: > 8 µM
[26]
  IC50: 5.3 µM
[27]
  IC50: 6.27 µM
[28]
  IC50: > 8 µM
[29]
  IC50: > 8 µM
[30]
  IC50: > 8 µM
[31]
  IC50: > 8 µM
[32]
  IC50: 0.603 µM
[2]
  IC50: > 8 µM
[3]
  IC50: > 8 µM
[4]
  IC50: > 8 µM
[5]
  IC50: 7.65 µM
[33]
  IC50: 6.53 µM
[34]
  IC50: > 8 µM
[6]
  IC50: > 8 µM
[35]
  IC50: > 8 µM
[36]
  IC50: > 8 µM
[7]
  IC50: > 8 µM
[37]
  IC50: > 8 µM
[8]
  IC50: > 8 µM
[9]
  IC50: > 8 µM
[38]
  IC50: > 8 µM
[39]
  IC50: 5.48 µM
[40]
  IC50: > 8 µM
[41]
  IC50: > 8 µM
[42]
  IC50: 0.893 µM
[43]
  IC50: > 8 µM
[44]
  IC50: > 8 µM
[45]
  IC50: > 8 µM
[10]
  IC50: > 8 µM
[46]
  IC50: 6.94 µM
[47]
  IC50: > 8 µM
[11]
  IC50: > 8 µM
[48]
  IC50: 2.3 µM
[12]
  IC50: > 8 µM
[49]
  IC50: > 8 µM
[50]
  IC50: 5.24 µM
[51]
  IC50: > 8 µM
[52]
  IC50: > 8 µM
[53]
  IC50: > 8 µM
[54]
  IC50: 2.16 µM
[55]
  IC50: > 8 µM
[56]
  IC50: > 8 µM
[57]
  IC50: > 8 µM
[13]
  IC50: 4.85 µM
[58]
  IC50: 2.81 µM
[59]
  IC50: > 8 µM
[60]
  IC50: 1.3 µM
[61]
  IC50: > 8 µM
[14]
  IC50: > 8 µM
[15]
  IC50: 2.98 µM
[62]
  IC50: 7.2 µM
[63]
  IC50: > 8 µM
[64]
  IC50: > 8 µM
[65]
  IC50: > 8 µM
[16]
  IC50: > 8 µM

## COc1cc(C)c(Sc2cnc(NC(=O)c3ccc(CNC(C)C(C)(C)C)cc3)s2)cc1C(=O)N1CCN(C(C)=O)CC1 (stereo unspecified)
[1]
  IC50: > 10.2 µM
[2]
  IC50: > 10.2 µM
[3]
  IC50: > 10.2 µM
[4]
  IC50: > 10.2 µM
[5]
  IC50: > 10.2 µM
[6]
  IC50: > 10.2 µM
[7]
  IC50: > 10.2 µM
[8]
  IC50: 6.67 µM
[9]
  IC50: > 10.2 µM
[10]
  IC50: > 10.2 µM
[11]
  IC50: > 10.2 µM
[12]
  IC50: 7.48 µM
[13]
  IC50: > 10.2 µM
[14]
  IC50: > 10.2 µM
[15]
  IC50: > 10.2 µM
[16]
  IC50: > 10.2 µM

## Cc1n[nH]c2ccc(-c3cncc(OC[C@@H](N)Cc4c[nH]c5ccccc45)c3)cc12 [A-443654]
[1]
  IC50: > 1.02 µM
[2]
  IC50: 0.188 µM
[3]
  IC50: 0.224 µM
[4]
  IC50: 0.181 µM
[5]
  IC50: 0.217 µM
[6]
  IC50: > 1.02 µM
[7]
  IC50: > 1.02 µM
[8]
  IC50: 0.0772 µM
[9]
  IC50: 0.392 µM
[10]
  IC50: 0.38 µM
[11]
  IC50: 0.623 µM
[12]
  IC50: > 1.02 µM
[13]
  IC50: 0.057 µM
[14]
  IC50: 0.798 µM
[15]
  IC50: > 1.02 µM
[16]
  IC50: 0.267 µM

## Cc1nc(Nc2ncc(C(=O)Nc3c(C)cccc3Cl)s2)cc(N2CCN(CCO)CC2)n1 [DASATINIB]
[1]
  IC50: > 1.28 µM
[2]
  IC50: > 1.28 µM
[3]
  IC50: > 1.28 µM
[4]
  IC50: > 1.28 µM
[5]
  IC50: > 1.28 µM
[6]
  IC50: > 1.28 µM
[7]
  IC50: > 1.28 µM
[8]
  IC50: > 1.28 µM
[9]
  IC50: > 1.28 µM
[10]
  IC50: > 1.28 µM
[11]
  IC50: > 1.28 µM
[12]
  IC50: > 1.28 µM
[13]
  IC50: < 0.005 µM
[14]
  IC50: > 1.28 µM
[15]
  IC50: > 1.28 µM
[16]
  IC50: > 1.28 µM

## CCn1c(-c2nonc2N)nc2cnc(Oc3cccc(NC(=O)c4ccc(OCCN5CCOCC5)cc4)c3)cc21 [GSK-269962A]
[1]
  IC50: > 2.5 µM
[2]
  IC50: > 2.5 µM
[3]
  IC50: > 2.5 µM
[4]
  IC50: > 2.5 µM
[5]
  IC50: > 2.5 µM
[6]
  IC50: > 2.5 µM
[7]
  IC50: > 2.5 µM
[8]
  IC50: > 2.5 µM
[9]
  IC50: 1.28 µM
[10]
  IC50: > 2.5 µM
[11]
  IC50: > 2.5 µM
[12]
  IC50: > 2.5 µM
[13]
  IC50: > 2.5 µM
[14]
  IC50: > 2.5 µM
[15]
  IC50: > 2.5 µM
[16]
  IC50: > 2.5 µM

## Cc1[nH]c(/C=C2\C(=O)Nc3ccc(S(=O)(=O)Cc4c(Cl)cccc4Cl)cc32)c(C)c1C(=O)N1CCC[C@@H]1CN1CCCC1 [PHA-665752]
[1]
  IC50: > 2 µM
[2]
  IC50: > 2 µM
[3]
  IC50: > 2 µM
[4]
  IC50: > 2 µM
[5]
  IC50: > 2 µM
[6]
  IC50: > 2 µM
[7]
  IC50: > 2 µM
[8]
  IC50: > 2 µM
[9]
  IC50: > 2 µM
[10]
  IC50: > 2 µM
[11]
  IC50: > 2 µM
[12]
  IC50: > 2 µM
[13]
  IC50: > 2 µM
[14]
  IC50: > 2 µM
[15]
  IC50: > 2 µM
[16]
  IC50: > 2 µM

Reference: ChEMBL document CHEMBL1201861, “Genomics of Drug Sensitity in Cancer screening data, Wellcome Trust Sanger Institute”
